Experimental data published in US20110217265A1, “Screening for Inhibitors of HCV Amphipathic Helix (AH) Function” (priority 2008, published 2011).
Entries after “also recorded” stand apart in the source; their conditions may differ.

Assays:
Huh7.5 cells = experiment: Alamar Blue cell viability assay; assay type: cell-based, human; details: in parallel with replication assays, 72 hr
[1] = system: subgenomic genotype 1b replicon RNA (Bart79ILuc); experiment: Transient genotype 1b subgenomic replicon (Bart79I-luc) luciferase replication assay in Huh7.5 cells; assay type: cell-based, Hepatitis C Virus genotype 1b; details: luciferase at 72 hr of treatment
Description: Plasmids. Bart79I, a high-efficiency subgenomic replicon of HCV (28), harbors the neomycin resistance gene (neo) and the HCV nonstructural proteins. The Bart-Luciferase plasmid, Bart79I-luc, was cloned from the Bart791 parent (29) and the pGL3-Basic parent (Promega). In brief, a NotI site was introduced after the 15th amino acid of Core in Bart791 using PCR mutagenesis. The plasmid pcDNA3.1-NS4B, which encodes the Con1 NS4B sequence and was used to study the protein stability of the wild type and mutant NS4Bs, was described previously. […]
Transient Replication Assays. […] Firefly luciferase activities were measured at 8, 48, 96, and 144 hr post electroporation by using a firefly luciferase kit from Promega (Madison, Wis.).
Antiviral Assays of Compounds. […] Plates were then scanned and fluorescence was detected by using a FLEXstation II 384 (Molecular Devices). […] Viral RNA replication was determined using Renilla (FL-J6/JFH-5′C19Rluc2AUbi) or firefly (Bart791-luc) luciferase assays, according to the manufacturer's (Promega) directions. The same samples subjected to the viability assay described below were analyzed in this assay. […] Luminescence was measured over 10 seconds with a 2-second delay using a Berthold LB 96 V luminometer. […]

## CC(C)CN(C)c1nc(N)c(C(=O)NC(=N)N)nc1Cl [C4, 3-amino-N-carbamimidoyl-6-chloro-5-(isobutyl(methyl)amino)pyrazine-2-carboxamide]
Huh7.5 cells
  Cellular toxicity (Alamar Blue viability): No significant cellular toxicity
[1]
  Inhibition of HCV genotype 1b genome replication: inhibits HCV replication; also recorded: dose-dependent inhibition
